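Protocol summary: plate cells (96-well), add compound at 5 concentrations, incubate 48 h, interpolate endpoints linearly. Definition used: TGI = concentration required for complete inhibition of growth.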
How the values were obtained:
Experiment in all cases: growth of human tumour cells (NCI), 48 h
[1] = tested on: SK-MEL-28 melanoma
[2] = tested on: HL-60(TB) leukemia
[3] = tested on: OVCAR-5 ovarian
[4] = tested on: NCI/ADR-RES ovarian
[5] = tested on: SN12C renal
[6] = tested on: BT-549 breast
[7] = tested on: CCRF-CEM leukemia
[8] = tested on: SF-268 CNS
[9] = tested on: RPMI-8226 leukemia
[10] = tested on: NCI-H460 lung
[11] = tested on: K-562 leukemia
[12] = tested on: SNB-75 CNS
[13] = tested on: HS 578T breast
[14] = tested on: MDA-MB-231 breast
[15] = tested on: UO-31 renal
[16] = tested on: MOLT-4 leukemia
[17] = tested on: OVCAR-8 ovarian

Clc1ccc(-c2cn3c(nc4ccccc43)c(/C=C/c3cccs3)n2)cc1
TGI [1]: > 100 µM
TGI [2]: > 100 µM
TGI [3]: > 100 µM
TGI [4]: > 100 µM
TGI [5]: > 100 µM
TGI [6]: > 100 µM
TGI [7]: > 100 µM
TGI [8]: > 100 µM
TGI [9]: > 100 µM
TGI [10]: > 100 µM
TGI [11]: > 100 µM
TGI [12]: > 100 µM
TGI [13]: > 100 µM
TGI [14]: > 100 µM
TGI [15]: > 100 µM

C=CC[C@H](O)[C@@](NC(=O)OCc1ccccc1)(Sc1ccc(C)cc1)C(F)(F)F
TGI [1]: > 100 µM
TGI [16]: 87.2 µM
TGI [17]: 35.3 µM
TGI [2]: 28.9 µM
TGI [3]: 75.4 µM
TGI [4]: > 100 µM
TGI [5]: 45.8 µM
TGI [6]: 29.4 µM
TGI [8]: 47.9 µM
TGI [9]: 71.6 µM
TGI [10]: > 100 µM
TGI [11]: > 100 µM
TGI [13]: 82.8 µM
TGI [14]: 59.8 µM
TGI [15]: 55.4 µM

CC1(C)CC(=O)c2c(nc3c(ccc4ccccc43)c2-c2ccc(NC(=O)CCCCCCCCC(=O)Nc3ccc(-c4c5c(nc6c4ccc4ccccc46)CC(C)(C)CC5=O)cc3)cc2)C1
TGI [1]: > 100 µM
TGI [16]: > 100 µM
TGI [17]: > 100 µM
TGI [2]: > 100 µM
TGI [3]: > 100 µM
TGI [4]: > 100 µM
TGI [5]: > 100 µM
TGI [7]: > 100 µM
TGI [8]: > 100 µM
TGI [9]: > 100 µM
TGI [10]: > 100 µM
TGI [11]: > 100 µM
TGI [12]: > 100 µM
TGI [13]: > 100 µM
TGI [14]: > 100 µM
TGI [15]: > 100 µM

CC(C)(C)OC(=O)CCC1NC(=O)[C@@H]2Cc3c([nH]c4ccccc34)C(c3ccccc3)N2C1=O (some centres undefined)
TGI [1]: > 100 µM
TGI [16]: > 100 µM
TGI [17]: > 100 µM
TGI [2]: 51.2 µM
TGI [3]: 70.2 µM
TGI [4]: 87.6 µM
TGI [5]: 53.1 µM
TGI [6]: 64.4 µM
TGI [8]: 75.8 µM
TGI [9]: > 100 µM
TGI [11]: > 100 µM
TGI [13]: 58.3 µM
TGI [14]: 42.1 µM
TGI [15]: > 100 µM

CC(=O)OCc1cc(OC(C)=O)c2cc3c(OC(C)=O)cccc3c(OC(C)=O)c2c1
TGI [1]: 51.7 µM
TGI [16]: > 100 µM
TGI [17]: 35.4 µM
TGI [2]: 47.5 µM
TGI [3]: 46.4 µM
TGI [4]: 43.4 µM
TGI [5]: 32.2 µM
TGI [6]: 49.6 µM
TGI [8]: 58.1 µM
TGI [9]: 44.6 µM
TGI [10]: 23.8 µM
TGI [11]: > 100 µM
TGI [12]: 45.2 µM
TGI [14]: 58.9 µM
TGI [15]: 41.2 µM

O=C(O)CSc1nc2ccccc2[nH]1
TGI [1]: > 100 µM
TGI [16]: > 100 µM
TGI [17]: > 100 µM
TGI [3]: > 100 µM
TGI [4]: > 100 µM
TGI [5]: > 100 µM
TGI [6]: > 100 µM
TGI [8]: > 100 µM
TGI [10]: > 100 µM
TGI [11]: > 100 µM
TGI [12]: > 100 µM
TGI [13]: > 100 µM
TGI [14]: > 100 µM
TGI [15]: > 100 µM

Cc1ccc(OC2CC(n3cnc4c(=O)[nH]c(Br)nc43)OC2Oc2ccc(C)cc2)cc1 (centres undefined)
TGI [16]: 50.5 µM
TGI [17]: 66.5 µM
TGI [2]: 59.2 µM
TGI [3]: 48.2 µM
TGI [4]: 69.2 µM
TGI [5]: 56.5 µM
TGI [6]: 67.5 µM
TGI [7]: 53.7 µM
TGI [8]: 58.1 µM
TGI [9]: 87.9 µM
TGI [10]: 43.2 µM
TGI [11]: 51.1 µM
TGI [13]: 66.1 µM
TGI [14]: 46.9 µM
TGI [15]: 38.4 µM

CC[C@H](C)[C@H](NC(=O)[C@H](Cc1ccc(O)cc1)NCC(F)(F)F)C(=O)OC(C)(C)C
TGI [1]: 19.1 µM
TGI [16]: 22 µM
TGI [17]: 29.8 µM
TGI [3]: 18 µM
TGI [4]: 50 µM
TGI [5]: 17.3 µM
TGI [6]: 34.7 µM
TGI [8]: 24.6 µM
TGI [9]: 23.5 µM
TGI [10]: 14.1 µM
TGI [11]: 27.2 µM
TGI [12]: 17.5 µM
TGI [13]: 31.5 µM
TGI [14]: 15.5 µM
TGI [15]: 14.8 µM

Source: PubChem BioAssay (NCI)
